Assay results: BindingDB's records for patent US9675571 (Bristol-Myers Squibb, 2017)

Target: Indoleamine 2,3-dioxygenase 1 (Homo sapiens, UniProt P14902)
Assay: IDO Kynurenine Assay
Conditions: 25 °C
Procedure: Human IDO1/HEK293 cells were seeded at 10,000 cells per 50 uL per well with RPMI/phenol red free media contains 10% FBS in a 384-well black wall clear bottom tissue culture plate (Matrix Technologies LLC) 125 nL of certain concentration of compound was then added to each well using ECHO liquid handling systems. The cells were incubated for 20 hours in 37° C. incubator with 5% CO2. The compound treatments were stopped by adding Trichloroacetic Acid (Sigma-Aldrich) to a final concentration at 0.2%. The cell plate was further incubated at 50° C. for 30 minute. The equal volume supernatant (20 uL) and 0.2% (w/v) Ehrlich reagent (4-dimethylaminobenzaldehyde, Sigma-Aldrich) in glacial acetic acid were mixed in a new clear bottom 384-well plate. This plate was then incubated at room temperature for 30 minute. The absorbance at 490 nm was measured on Envision plate reader.

Chain of Indoleamine 2,3-dioxygenase 1 (P14902 whole entry): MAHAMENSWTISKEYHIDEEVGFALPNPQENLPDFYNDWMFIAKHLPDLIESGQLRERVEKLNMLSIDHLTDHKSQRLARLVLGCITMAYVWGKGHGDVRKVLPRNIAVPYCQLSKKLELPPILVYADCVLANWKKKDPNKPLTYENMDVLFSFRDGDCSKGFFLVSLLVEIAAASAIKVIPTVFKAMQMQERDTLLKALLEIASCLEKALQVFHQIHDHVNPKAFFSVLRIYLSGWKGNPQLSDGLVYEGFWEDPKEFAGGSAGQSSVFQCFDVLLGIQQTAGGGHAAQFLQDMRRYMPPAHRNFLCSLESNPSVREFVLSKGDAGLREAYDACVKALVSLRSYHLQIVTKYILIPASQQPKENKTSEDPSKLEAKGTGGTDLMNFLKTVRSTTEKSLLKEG

EC50: 0.5 nM
Compound: Cc1cc(NC(=O)Nc2cc([C@H]3C[C@H]3C(=O)O)ccc2N(CC(C)C)C2CCCCC2)on1 [US9675571, 129]
